Experimental findings from ChEMBL document CHEMBL1201862, “PubChem BioAssay data set” (2004) are described below.

Calls of active or inactive are those of the source.

Test [1] is described as follows: NIH-3T3 fibroblast cytotoxicity, dose response, cytotoxicity control, cell-based, fluorescence, Alamar Blue, secondary assay (AID 2327).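 Note: NIH-3T3 mouse fibroblasts cultured with fluconazole at 8 µg/mL.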 The test is classed as functional.
Test [2] in a line: C. albicans growth with fluconazole, confirmation, fluorescence, retest (AID 2467). The test is classed as functional, cell-based.
Test [3] is described as follows: cytotoxicity in HPDE-C7 cells, cell-based, fluorescence, HTS (AID 430). The test is classed as functional. To be noted: Homo sapiens.
Test [4] in a line: cytotoxicity in KRAS-transformed pancreatic duct cells, primary screen, cell-based, fluorescence, HTS (AID 431).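 Note: cell line used: HPDE-C7K.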 The test is classed as functional. The following applies: Homo sapiens.
Test [5] in a line: growth suppression of PTEN-null colon cells, dose response, cell-based, HCT116 PTEN knockout (AID 1047).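 Note: HCT116 colon tumor cells with PTEN knocked out; cells exposed to compound for 60 hours before readout; potency for loss of cell viability measured by luminescence.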 The test is classed as functional.
Test [6] is described as follows: growth suppression of beta-catenin-knockout colon cells, dose response, cell-based, HCT116, human colon tumor (AID 1045).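 Note: HCT116 colon tumor cells with beta catenin knocked out; cells exposed to compound for 60 hours.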 Format: functional.
A short description of test [7]: THP-1 cell cytotoxicity, dose response, cytotoxicity control for non-replicating M. tuberculosis project (AID 489025). The test is classed as functional.
Test [8] in a line: HepG2 cell cytotoxicity, dose response, cytotoxicity control for non-replicating M. tuberculosis project (AID 489018). Format: functional. To be noted: Mycobacterium tuberculosis.
Test [9] can be described thus: Vero E6 cell cytotoxicity, dose response, cytotoxicity control for non-replicating M. tuberculosis project, secondary assay (AID 492998). Format: functional, VeroE6. To be noted: Vero C1008.
Test [10] concerns the target T1, Microphthalmia-associated transcription factor (Homo sapiens, UniProt O75030).
T1 sequence (O75030 whole entry): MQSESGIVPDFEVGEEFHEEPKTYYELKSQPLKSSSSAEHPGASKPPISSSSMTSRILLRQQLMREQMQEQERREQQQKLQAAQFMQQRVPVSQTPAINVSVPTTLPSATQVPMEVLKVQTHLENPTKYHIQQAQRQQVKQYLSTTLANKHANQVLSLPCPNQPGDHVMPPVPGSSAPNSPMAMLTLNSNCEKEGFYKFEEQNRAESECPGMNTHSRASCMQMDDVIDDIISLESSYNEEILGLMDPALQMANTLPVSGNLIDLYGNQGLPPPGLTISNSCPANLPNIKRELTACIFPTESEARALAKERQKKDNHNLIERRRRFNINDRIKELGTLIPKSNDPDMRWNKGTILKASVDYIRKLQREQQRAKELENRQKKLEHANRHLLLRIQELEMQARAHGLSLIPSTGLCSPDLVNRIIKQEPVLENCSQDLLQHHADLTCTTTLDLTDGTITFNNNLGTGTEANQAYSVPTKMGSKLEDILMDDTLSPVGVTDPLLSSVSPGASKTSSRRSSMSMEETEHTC
Briefly: TRPM1 promoter luciferase signal decrease, dose response, MITF inhibitor project, cell-based, SK-MEL-5, cherry-picked, set 3 (AID 493073).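 Note: SK-MEL-5 melanoma cells with luciferase driven by the MITF target TRPM1 promoter.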 The test is classed as functional.

The next test is described as follows: cells. The test is classed as functional.
Test [11] has as its system A-375. Briefly: MITF: Counter assay: A375 proliferation Measured in Cell-Based System Using Plate Reader - 2084-03_Inhibitor_Dose_DryPowder_Activity. [Related pubchem assays (depositor defined):AID488944]. The test is classed as functional. To be noted: Homo sapiens.
Test [12] relates to A-375. Briefly: A375 melanoma cell viability reduction, dose response, counter-screen for MITF modulator project, cherry-pick samples, set 2 (AID 540335). The test is classed as functional, cell-based. To be noted: Homo sapiens.
A short description of test [13]: inhibitors of PGC1a acetylation in cells, dose response, cell-based, cherry-picked samples (AID 720514).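 Note: potency may reflect raised or lowered acetylation signal.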 The test is classed as functional.
A further test deals with Escherichia coli. The test is described as follows: microbe, parasite or virus in culture.
Test [14] addresses Dual specificity protein kinase CLK1 (Homo sapiens, UniProt P49759). The test is described as follows: CLK1 kinase inhibitors, off-target check, dose response, selectivity assay for Dyrk1A inhibitor project, biochemical, cherry-picked samples (AID 588811).
For test [15], the target named is Dual specificity tyrosine-phosphorylation-regulated kinase 1A (Rattus norvegicus, UniProt Q63470). Format: biochemical, Homo sapiens.
Test [16] deals with T2, Short transient receptor potential channel 4 (Mus musculus, UniProt Q9QUQ5).
T2 sequence (Q9QUQ5 whole entry): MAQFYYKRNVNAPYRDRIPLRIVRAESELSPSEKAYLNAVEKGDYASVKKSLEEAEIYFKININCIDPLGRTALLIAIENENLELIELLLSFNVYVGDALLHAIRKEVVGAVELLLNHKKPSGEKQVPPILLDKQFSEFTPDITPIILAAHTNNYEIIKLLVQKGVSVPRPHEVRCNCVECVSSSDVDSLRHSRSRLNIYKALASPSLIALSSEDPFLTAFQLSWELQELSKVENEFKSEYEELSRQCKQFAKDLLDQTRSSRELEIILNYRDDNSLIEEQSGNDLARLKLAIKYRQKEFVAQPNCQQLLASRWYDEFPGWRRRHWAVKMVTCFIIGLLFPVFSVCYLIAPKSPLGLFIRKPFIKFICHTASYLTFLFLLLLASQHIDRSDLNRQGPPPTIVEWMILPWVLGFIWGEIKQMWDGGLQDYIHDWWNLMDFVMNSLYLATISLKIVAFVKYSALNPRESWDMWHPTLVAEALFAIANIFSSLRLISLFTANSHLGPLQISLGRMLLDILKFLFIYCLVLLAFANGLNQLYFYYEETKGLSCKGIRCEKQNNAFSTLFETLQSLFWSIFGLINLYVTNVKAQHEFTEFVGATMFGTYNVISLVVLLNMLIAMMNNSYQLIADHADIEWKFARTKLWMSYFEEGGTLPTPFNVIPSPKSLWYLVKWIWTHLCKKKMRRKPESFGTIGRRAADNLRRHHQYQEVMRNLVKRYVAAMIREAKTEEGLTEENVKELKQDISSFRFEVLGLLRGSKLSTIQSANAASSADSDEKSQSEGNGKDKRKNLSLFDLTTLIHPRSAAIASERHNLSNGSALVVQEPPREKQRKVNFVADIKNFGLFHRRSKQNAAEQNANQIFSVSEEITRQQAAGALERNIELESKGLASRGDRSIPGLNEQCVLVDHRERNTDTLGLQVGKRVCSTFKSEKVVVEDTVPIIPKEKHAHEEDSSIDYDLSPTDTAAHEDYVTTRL
The test is described as follows: mouse TRPC4 channel activators, dose response, cell-based, HEK293 TRPC4/mu-opioid, Fluo-4 calcium (AID 434937). The test is classed as functional.

The target in test [17] is Delta-type opioid receptor (Homo sapiens, UniProt P41143). Briefly: Counterscreen for agonists of heterodimerization of the mu 1 (OPRM1) and delta 1 (OPRD1) opioid receptors: Luminescence-based cell-based high throughput dose response assay to identify agonists of OPRD1 homodimerization. [Related pubchem assays (depositor defined):AID504326, AID504355, AID504692, AID504904, AID504905]. Format: functional.

A further test has as its target Mu-type opioid receptor (Homo sapiens, UniProt P35372). The test is described as follows: Counterscreen for agonists of heterodimerization of the mu 1 (OPRM1) and delta 1 (OPRD1) opioid receptors: Luminescence-based cell-based high throughput dose response assay to identify agonists of OPRM1 homodimerization. Format: functional.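 Note: U2OS cells expressing OPRM1 and beta-arrestin as split beta-galactosidase partners.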
Test [18] has as its target Opioid receptors; mu & delta (Homo sapiens, UniProt P41143+P35372). Briefly: agonists of MOR-DOR heterodimerization, dose response, cell-based, luminescence (AID 588407). Format: functional.
In test [19] the target is 5-hydroxytryptamine receptor 5A (Homo sapiens, UniProt P47898). The test is described as follows: Counterscreen for agonists of OPRM1-OPRD1 heterodimerization: luminescence-based cell-based high throughput dose response assay to identify agonists of 5-hydroxytryptamine (serotonin) 5A receptor (HTR5A). [Related pubchem assays (depositor defined):AID504326, AID504355, AID504692, AID504904, AID504905]. The test is classed as functional.

In test [20] the target is G-protein coupled receptor 35 (Homo sapiens, UniProt Q9HC97). Briefly: GPR35 antagonists blocking zaprinast-driven arrestin recruitment, primary screen, imaging, U2OS, beta-arrestin-GFP, zaprinast agonist (AID 2058).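 Note: antagonist potency meaning inhibition of agonist-induced arrestin redistribution.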 Format: functional.
Test [21] deals with T3, Voltage-gated N-type calcium channel alpha-1B subunit/Amyloid beta A4 precursor protein-binding family A member 1 (Homo sapiens, UniProt Q00975+Q02410). Format: protein assay.
The target in test [22] is T3, Voltage-gated N-type calcium channel alpha-1B subunit/Amyloid beta A4 precursor protein-binding family A member 1. Format: protein assay. The source holds these as a separate data set.
For test [23], the target named is T4, Beta-adrenergic receptor kinase 1 (Homo sapiens, UniProt P25098).
T4 sequence (P25098 whole entry): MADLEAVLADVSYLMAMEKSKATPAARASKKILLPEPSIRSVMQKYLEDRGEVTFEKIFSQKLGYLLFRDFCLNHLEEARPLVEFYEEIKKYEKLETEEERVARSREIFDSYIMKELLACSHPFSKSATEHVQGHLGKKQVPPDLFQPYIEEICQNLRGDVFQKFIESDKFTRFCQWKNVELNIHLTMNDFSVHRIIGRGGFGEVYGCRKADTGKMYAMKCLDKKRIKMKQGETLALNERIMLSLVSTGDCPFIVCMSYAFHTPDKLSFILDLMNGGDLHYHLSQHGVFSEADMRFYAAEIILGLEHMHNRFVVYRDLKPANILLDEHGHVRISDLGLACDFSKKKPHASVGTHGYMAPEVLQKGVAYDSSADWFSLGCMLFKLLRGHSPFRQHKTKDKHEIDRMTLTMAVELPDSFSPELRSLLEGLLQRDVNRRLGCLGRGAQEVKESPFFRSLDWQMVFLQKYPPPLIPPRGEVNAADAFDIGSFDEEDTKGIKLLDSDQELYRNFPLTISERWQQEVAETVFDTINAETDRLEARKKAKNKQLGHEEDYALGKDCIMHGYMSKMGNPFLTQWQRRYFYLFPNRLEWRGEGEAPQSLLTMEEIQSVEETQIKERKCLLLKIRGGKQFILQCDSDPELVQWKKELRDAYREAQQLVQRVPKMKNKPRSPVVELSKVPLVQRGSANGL
Briefly: Inhibitors of aptamer binding to bead-bound beta-adrenergic receptor kinase 1 by flow cytometry, biochemical, cherry pick 2, EC50 (AID 504815).

The target of test [24] is T4, Beta-adrenergic receptor kinase 1. Briefly: GRK2 inhibitors displacing RNA aptamer, dose response, biochemical, flow cytometry beads, FAM-aptamer, powder set 1 (AID 588720).
Test [25] has as its target T5, Carboxy-terminal domain RNA polymerase II polypeptide A small phosphatase 1 (Homo sapiens, UniProt Q9GZU7).
T5 sequence (Q9GZU7 whole entry): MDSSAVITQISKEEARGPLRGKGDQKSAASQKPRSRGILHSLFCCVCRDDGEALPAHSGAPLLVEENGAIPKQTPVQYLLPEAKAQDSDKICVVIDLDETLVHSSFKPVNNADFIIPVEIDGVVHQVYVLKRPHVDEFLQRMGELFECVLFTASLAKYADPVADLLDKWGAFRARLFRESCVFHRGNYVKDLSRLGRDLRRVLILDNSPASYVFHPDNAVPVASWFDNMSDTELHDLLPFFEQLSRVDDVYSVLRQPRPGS
The test is described as follows: inhibitors of CTDSP1, concentration-response testing, biochemical assay, absorbance-based, actives from ultra-high-throughput screening (AID 540297). The test is classed as functional.

For test [26], the target named is T6, Small ubiquitin-related modifier 1 (Homo sapiens, UniProt P63165). The test is described as follows: inhibitors of SUMO1 peptide binding, dose response, biochemical, fluorescence polarization, uHTS hits (AID 624382). The following applies: read-out: IC50_Mean. The test is classed as functional.
For test [27], the target named is T6, Small ubiquitin-related modifier 1. The test is described as follows: inhibitors of SUMO1 partner interactions, dose response, biochemical, FRET (AID 624383). The test is classed as functional. The following applies: read-out: IC50_Mean.

T3 sequence (Q00975 whole entry): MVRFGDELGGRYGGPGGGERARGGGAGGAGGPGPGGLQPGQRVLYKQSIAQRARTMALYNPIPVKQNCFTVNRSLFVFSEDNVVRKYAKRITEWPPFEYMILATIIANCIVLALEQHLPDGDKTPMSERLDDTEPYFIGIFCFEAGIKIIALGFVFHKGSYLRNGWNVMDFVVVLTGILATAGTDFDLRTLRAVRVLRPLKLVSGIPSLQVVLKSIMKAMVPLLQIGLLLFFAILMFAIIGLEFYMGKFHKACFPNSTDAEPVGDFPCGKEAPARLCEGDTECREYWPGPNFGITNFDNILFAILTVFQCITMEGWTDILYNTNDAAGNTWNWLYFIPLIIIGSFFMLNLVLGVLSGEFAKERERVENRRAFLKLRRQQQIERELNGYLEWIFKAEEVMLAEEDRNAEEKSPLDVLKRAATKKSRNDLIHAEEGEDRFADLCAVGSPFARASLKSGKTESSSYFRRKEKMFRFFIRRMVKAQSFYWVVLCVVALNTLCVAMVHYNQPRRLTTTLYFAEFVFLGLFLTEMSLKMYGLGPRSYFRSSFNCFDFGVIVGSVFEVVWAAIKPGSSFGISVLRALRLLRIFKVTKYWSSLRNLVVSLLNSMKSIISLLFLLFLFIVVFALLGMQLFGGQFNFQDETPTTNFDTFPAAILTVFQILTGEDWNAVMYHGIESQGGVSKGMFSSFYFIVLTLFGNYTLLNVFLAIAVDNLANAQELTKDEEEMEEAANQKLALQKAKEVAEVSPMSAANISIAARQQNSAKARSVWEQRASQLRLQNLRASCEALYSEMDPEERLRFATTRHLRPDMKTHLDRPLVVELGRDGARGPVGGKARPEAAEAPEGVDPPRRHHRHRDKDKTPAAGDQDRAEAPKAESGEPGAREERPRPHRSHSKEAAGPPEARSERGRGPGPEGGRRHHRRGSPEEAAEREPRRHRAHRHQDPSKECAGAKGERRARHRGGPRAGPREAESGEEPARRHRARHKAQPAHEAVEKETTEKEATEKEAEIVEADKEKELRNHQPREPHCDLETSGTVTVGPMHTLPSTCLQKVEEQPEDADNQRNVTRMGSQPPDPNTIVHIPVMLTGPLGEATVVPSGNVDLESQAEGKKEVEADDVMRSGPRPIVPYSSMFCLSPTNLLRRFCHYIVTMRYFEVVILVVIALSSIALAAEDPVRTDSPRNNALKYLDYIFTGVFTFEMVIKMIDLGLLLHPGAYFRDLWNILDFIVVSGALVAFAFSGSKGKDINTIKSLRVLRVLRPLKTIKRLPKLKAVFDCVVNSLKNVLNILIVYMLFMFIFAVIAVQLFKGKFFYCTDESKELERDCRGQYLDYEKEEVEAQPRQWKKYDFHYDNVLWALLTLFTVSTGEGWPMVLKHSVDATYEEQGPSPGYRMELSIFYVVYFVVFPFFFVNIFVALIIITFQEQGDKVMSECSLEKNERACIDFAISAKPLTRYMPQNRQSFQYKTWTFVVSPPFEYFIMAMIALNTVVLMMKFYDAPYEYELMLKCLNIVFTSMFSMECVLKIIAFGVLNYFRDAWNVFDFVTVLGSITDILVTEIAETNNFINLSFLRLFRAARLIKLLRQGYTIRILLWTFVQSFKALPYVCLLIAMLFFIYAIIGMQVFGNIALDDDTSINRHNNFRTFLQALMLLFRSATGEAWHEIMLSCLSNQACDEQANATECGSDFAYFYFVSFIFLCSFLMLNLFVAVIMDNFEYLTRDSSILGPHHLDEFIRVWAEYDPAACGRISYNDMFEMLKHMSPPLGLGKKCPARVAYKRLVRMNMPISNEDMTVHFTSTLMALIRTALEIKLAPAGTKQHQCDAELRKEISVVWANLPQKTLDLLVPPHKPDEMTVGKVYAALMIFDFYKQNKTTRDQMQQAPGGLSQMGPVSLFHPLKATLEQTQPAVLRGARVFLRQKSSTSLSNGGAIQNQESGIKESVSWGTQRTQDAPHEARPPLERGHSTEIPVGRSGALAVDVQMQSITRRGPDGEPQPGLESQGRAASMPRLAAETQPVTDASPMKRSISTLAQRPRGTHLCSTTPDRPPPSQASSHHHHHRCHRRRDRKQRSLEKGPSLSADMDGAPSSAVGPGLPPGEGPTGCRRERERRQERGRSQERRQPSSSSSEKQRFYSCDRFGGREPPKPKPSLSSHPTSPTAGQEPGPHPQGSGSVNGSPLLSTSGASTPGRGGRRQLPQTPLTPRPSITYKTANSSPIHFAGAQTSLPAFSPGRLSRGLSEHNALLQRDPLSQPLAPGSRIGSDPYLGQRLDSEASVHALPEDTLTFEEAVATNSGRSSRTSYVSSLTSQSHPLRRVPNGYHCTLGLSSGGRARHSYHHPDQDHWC
T3 sequence (Q02410 whole entry): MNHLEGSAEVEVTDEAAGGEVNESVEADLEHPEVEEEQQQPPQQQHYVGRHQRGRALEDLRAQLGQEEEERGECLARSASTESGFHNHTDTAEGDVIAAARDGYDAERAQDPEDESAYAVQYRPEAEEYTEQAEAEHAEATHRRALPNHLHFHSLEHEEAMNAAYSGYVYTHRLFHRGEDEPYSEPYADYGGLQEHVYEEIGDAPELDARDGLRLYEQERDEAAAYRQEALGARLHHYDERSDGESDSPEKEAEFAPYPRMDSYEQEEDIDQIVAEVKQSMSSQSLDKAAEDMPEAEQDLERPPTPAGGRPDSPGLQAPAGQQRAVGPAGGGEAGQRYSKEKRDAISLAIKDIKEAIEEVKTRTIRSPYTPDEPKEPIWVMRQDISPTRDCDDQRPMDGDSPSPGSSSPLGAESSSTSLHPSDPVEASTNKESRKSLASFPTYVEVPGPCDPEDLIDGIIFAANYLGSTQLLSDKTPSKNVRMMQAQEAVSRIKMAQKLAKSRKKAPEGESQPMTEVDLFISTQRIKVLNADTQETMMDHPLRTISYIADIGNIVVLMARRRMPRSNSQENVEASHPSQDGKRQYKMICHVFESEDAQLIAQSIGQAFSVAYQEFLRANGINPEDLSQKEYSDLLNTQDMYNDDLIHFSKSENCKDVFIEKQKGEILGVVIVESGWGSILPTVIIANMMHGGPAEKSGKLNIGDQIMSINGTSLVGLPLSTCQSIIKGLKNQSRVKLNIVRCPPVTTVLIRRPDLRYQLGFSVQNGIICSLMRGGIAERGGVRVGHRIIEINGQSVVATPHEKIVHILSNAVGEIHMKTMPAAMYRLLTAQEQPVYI
T6 sequence (P63165 whole entry): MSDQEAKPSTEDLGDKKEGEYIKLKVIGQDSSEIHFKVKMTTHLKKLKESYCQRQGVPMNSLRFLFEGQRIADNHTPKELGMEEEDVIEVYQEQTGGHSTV
Mu-type opioid receptor, sequence (P35372 whole entry): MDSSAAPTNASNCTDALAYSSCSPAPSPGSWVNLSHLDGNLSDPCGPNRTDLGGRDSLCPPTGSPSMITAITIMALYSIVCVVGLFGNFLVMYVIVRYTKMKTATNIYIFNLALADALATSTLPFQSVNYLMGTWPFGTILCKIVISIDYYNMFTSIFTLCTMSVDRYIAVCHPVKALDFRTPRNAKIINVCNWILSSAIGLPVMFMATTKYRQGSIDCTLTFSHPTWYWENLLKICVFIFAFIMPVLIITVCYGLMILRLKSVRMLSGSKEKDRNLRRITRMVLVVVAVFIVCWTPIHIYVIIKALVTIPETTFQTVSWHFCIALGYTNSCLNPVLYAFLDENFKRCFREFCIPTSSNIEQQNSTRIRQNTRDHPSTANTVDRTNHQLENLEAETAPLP
Delta-type opioid receptor, sequence (P41143 whole entry): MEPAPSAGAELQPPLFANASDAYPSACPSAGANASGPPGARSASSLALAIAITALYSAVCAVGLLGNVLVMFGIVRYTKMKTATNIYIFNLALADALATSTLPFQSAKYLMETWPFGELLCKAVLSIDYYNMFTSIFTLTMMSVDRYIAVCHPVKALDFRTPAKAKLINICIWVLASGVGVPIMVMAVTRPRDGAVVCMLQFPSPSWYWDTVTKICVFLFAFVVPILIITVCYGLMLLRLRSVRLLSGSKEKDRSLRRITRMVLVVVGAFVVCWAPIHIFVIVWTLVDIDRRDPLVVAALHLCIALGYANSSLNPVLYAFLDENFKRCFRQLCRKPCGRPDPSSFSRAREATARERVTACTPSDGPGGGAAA
G-protein coupled receptor 35, sequence (Q9HC97 whole entry): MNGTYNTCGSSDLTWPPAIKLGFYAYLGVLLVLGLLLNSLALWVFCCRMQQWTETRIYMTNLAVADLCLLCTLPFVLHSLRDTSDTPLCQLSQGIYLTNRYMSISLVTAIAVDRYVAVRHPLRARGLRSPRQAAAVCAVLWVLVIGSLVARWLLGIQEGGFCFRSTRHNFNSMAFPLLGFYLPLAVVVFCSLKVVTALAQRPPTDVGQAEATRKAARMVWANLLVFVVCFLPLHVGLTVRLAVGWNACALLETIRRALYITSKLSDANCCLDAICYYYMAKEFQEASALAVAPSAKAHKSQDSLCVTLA
5-hydroxytryptamine receptor 5A, sequence (P47898 whole entry): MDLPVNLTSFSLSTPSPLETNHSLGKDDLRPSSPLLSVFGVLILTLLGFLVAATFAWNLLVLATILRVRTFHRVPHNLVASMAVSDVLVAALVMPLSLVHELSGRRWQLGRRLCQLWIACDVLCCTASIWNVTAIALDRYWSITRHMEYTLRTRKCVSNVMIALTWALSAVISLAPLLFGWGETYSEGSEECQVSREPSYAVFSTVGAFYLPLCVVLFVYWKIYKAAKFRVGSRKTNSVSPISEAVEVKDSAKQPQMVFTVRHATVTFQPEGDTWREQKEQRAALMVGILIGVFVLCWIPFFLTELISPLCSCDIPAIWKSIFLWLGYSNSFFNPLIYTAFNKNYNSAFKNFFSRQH

Consider `COc1ccc(C(=O)C(CN2CCCC2)c2ccccc2)cc1` (stereo not given), for which the EC50 in test [1] was 59.6 µM (active); in [2] it was 2.13 µM (active); in test [3], 4.54 µM (active); in test [4], 6.46 µM (active); in test [5], 2.44 µM (active); in test [6] it was 1.83 µM (active). The CC50 in [7] was 7.27 µM (active); in [8] it was 17.3 µM (active); in test [9] it was 11.6 µM (active). For the same compound, the AC50 in [10] is 9.13 µM (active); in the test with A-375 [11], > 35 µM (active); in the test on A-375 [12], > 35 µM (active); in [13], 10.5 µM (active). The IC50 in “cells” is 16.5 µM (active).
Regarding `Cc1ccc(-n2nnnc2SCC(=O)Nc2ccc3c(c2)OCCO3)cc1C`, the AC50 in the test with Escherichia coli is 30.9 µM (active).
With `COc1cccc(Nc2ncnc3sc(C)cc23)c1`, the figures for the AC50 in test [14] and in test [15] were 5.47 µM (active) and 3.81 µM (active), respectively.
Consider `COc1ccccc1N1CCN(C(c2cccs2)C(C)NC(=O)c2ccco2)CC1` (stereo not given), for which the EC50 in [16] was 0.084 µM (active); in test [17] it was > 92.5 µM (inactive); at Mu-type opioid receptor, 50.3 µM (inactive); in test [18], over 3.425 µM; in [19], > 92.5 µM (inactive).
In the case of `NS(=O)(=O)c1ccc(CCNC(=O)CCS(=O)(=O)c2ccc(Br)cc2)cc1`, the IC50 in test [20] is 2.23 µM (active); in test [21], 40.9 µM (active); in test [22] it was > 50 µM (inactive); in test [25], 4.17 µM (active); in test [26], > 66.6 µM (inactive); in test [27], 9.08 µM (active). For the same compound, the EC50 is 5.2 µM (active) in test [23] and 1.21 µM (active) in [24].
